Our source for the Ki values is ChEMBL document CHEMBL4043219, “Development of sulfonamides incorporating phenylacrylamido functionalities as carbonic anhydrase isoforms I, II, IX and XII inhibitors” (Bioorg Med Chem, 2017).

For orientation: Ki means the equilibrium dissociation constant of an inhibitor or competing ligand from its target.

One test deals with Carbonic anhydrase 12 (Homo sapiens, UniProt O43570). As to the kind of experiment: Inhibition of human recombinant carbonic anhydrase-12 preincubated for 10 mins by stopped-flow CO2 hydration assay.
Sequence of Carbonic anhydrase 12 (O43570 whole entry): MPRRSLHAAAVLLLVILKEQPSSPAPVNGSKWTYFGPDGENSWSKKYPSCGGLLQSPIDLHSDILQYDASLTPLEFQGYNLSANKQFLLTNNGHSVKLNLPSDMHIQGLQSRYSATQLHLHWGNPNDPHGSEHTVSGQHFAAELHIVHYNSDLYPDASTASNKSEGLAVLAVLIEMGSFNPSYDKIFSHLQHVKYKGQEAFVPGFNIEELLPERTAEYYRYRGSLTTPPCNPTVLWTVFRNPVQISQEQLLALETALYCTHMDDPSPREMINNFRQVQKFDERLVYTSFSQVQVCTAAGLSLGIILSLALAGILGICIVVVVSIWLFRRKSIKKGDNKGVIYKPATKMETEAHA
As for `NS(=O)(=O)c1ccc(NC(=O)/C=C/c2ccccc2OC(F)F)cc1`, the Ki was determined as 4.6 nM.

Another test addresses Carbonic anhydrase 9 (Homo sapiens, UniProt Q16790).
Description: Inhibition of human recombinant carbonic anhydrase-9 preincubated for 10 mins by stopped-flow CO2 hydration assay
`COc1ccc(/C=C/C(=O)Nc2ccc(S(N)(=O)=O)cc2)cc1OC` returned a Ki of 9.3 nM.

Take `NS(=O)(=O)c1ccc(NC(=O)/C=C/c2ccc(OC(F)(F)F)cc2)cc1`: the affinity, expressed as Ki, was 4.9 nM.

In turn, `NS(=O)(=O)c1ccc(NC(=O)/C=C/c2ccc(F)c(F)c2)cc1` showed a Ki of 151 nM.

For the compound `CC(C)Oc1ccc(/C=C/C(=O)Nc2ccc(S(N)(=O)=O)cc2)cc1`, the affinity, expressed as Ki, was 20.3 nM.

`NS(=O)(=O)c1ccc(NC(=O)/C=C/c2ccc(Cl)cc2)cc1` displayed an inhibition constant (Ki) of 12.6 nM.

In the case of `N#Cc1ccc(/C=C/C(=O)Nc2ccc(S(N)(=O)=O)cc2)cc1`, the inhibitory constant (Ki) is 8 nM.

For the compound `NS(=O)(=O)c1ccc(NC(=O)/C=C/c2cccc(C(F)(F)F)c2)cc1`, affinity was put at a Ki of 11.6 nM.

Turning to `NS(=O)(=O)c1ccc(NC(=O)/C=C/c2cc(Cl)cc(Cl)c2)cc1`, the affinity, expressed as Ki, was 229 nM.

Compound `NS(=O)(=O)c1ccc(NC(=O)/C=C/c2ccc(C(F)(F)F)cc2)cc1` had an inhibition constant (Ki) of 2.4 nM.

As for `COc1ccc(/C=C/C(=O)Nc2ccc(S(N)(=O)=O)cc2)c(OC)c1`, the Ki is 9.6 nM.

`NS(=O)(=O)c1ccc(NC(=O)/C=C/c2ccccc2OC(F)F)cc1` displayed a Ki of 1.8 nM.

In turn, `COc1ccc(/C=C/C(=O)Nc2ccc(S(N)(=O)=O)cc2)cc1` came in with a Ki of 5.3 nM.

Regarding `NS(=O)(=O)c1ccc(NC(=O)/C=C/c2ccc(F)cc2)cc1`, the inhibition constant Ki is 2.4 nM.

As for `NS(=O)(=O)c1ccc(NC(=O)/C=C/c2cccc(F)c2)cc1`, the inhibition constant (Ki) came to 2 nM.

For the compound `COc1ccc(/C=C/C(=O)Nc2ccc(S(N)(=O)=O)cc2)c(F)c1`, the Ki amounted to 11.2 nM.

For the compound `COc1cc(/C=C/C(=O)Nc2ccc(S(N)(=O)=O)cc2)cc(OC)c1OC`, affinity was put at a Ki of 126 nM.
